Measured values as given in ChEMBL document CHEMBL4004823, “Discovery of Potent and Selective Inhibitors for G9a-Like Protein (GLP) Lysine Methyltransferase” (J Med Chem, 2017).

How the values were obtained:
[1] = target: T1, Histone-lysine N-methyltransferase EHMT2 (Homo sapiens, UniProt Q96KQ7); assay: (§1) Inhibition of recombinant G9a catalytic SET domain (913 to 1193 residues) (unknown origin) expressed in Escherichia coli BL21 (DE3) codon plus RIL assessed as inhibition of methylation activity using biotin-labeled H3 (1 to 25 residues) as substrate and [3H]-SAM after 2 hrs by scintillation proximity assay
T1 sequence (Q96KQ7 whole entry): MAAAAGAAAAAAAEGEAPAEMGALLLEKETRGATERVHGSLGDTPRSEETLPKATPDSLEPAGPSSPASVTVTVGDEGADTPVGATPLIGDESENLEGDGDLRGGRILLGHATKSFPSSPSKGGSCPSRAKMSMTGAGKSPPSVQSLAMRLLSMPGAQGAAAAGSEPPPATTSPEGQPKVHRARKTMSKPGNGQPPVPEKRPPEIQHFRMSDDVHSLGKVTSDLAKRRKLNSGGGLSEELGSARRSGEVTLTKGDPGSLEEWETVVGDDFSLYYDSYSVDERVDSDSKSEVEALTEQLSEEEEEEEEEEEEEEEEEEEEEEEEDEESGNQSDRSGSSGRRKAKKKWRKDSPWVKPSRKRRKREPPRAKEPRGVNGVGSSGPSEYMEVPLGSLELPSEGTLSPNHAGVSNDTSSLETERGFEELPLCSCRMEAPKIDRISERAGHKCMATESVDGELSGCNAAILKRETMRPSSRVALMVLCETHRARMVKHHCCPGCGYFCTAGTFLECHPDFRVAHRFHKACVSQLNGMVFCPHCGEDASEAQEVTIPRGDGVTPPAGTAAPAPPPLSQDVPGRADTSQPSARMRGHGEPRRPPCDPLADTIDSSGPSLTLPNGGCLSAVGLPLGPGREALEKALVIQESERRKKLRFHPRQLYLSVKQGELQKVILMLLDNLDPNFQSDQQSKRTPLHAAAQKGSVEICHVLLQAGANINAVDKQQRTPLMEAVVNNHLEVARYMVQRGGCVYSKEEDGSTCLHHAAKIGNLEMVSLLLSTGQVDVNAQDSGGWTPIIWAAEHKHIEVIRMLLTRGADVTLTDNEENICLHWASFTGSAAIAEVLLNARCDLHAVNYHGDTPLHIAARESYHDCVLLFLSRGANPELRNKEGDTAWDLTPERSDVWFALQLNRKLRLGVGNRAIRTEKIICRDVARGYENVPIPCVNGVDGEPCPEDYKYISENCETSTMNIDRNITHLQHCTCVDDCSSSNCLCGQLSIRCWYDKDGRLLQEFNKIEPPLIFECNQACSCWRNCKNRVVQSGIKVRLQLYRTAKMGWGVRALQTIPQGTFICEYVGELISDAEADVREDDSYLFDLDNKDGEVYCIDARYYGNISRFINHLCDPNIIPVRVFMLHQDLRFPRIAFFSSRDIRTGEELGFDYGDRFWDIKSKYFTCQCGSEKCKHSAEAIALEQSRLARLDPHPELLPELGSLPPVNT

[2] = target: T2, Histone-lysine N-methyltransferase EHMT1 (Homo sapiens, UniProt Q9H9B1); assay: as §1, with “GLP” for “G9a”, “(982” for “(913”, “1266” for “1193”
T2 sequence (Q9H9B1 whole entry): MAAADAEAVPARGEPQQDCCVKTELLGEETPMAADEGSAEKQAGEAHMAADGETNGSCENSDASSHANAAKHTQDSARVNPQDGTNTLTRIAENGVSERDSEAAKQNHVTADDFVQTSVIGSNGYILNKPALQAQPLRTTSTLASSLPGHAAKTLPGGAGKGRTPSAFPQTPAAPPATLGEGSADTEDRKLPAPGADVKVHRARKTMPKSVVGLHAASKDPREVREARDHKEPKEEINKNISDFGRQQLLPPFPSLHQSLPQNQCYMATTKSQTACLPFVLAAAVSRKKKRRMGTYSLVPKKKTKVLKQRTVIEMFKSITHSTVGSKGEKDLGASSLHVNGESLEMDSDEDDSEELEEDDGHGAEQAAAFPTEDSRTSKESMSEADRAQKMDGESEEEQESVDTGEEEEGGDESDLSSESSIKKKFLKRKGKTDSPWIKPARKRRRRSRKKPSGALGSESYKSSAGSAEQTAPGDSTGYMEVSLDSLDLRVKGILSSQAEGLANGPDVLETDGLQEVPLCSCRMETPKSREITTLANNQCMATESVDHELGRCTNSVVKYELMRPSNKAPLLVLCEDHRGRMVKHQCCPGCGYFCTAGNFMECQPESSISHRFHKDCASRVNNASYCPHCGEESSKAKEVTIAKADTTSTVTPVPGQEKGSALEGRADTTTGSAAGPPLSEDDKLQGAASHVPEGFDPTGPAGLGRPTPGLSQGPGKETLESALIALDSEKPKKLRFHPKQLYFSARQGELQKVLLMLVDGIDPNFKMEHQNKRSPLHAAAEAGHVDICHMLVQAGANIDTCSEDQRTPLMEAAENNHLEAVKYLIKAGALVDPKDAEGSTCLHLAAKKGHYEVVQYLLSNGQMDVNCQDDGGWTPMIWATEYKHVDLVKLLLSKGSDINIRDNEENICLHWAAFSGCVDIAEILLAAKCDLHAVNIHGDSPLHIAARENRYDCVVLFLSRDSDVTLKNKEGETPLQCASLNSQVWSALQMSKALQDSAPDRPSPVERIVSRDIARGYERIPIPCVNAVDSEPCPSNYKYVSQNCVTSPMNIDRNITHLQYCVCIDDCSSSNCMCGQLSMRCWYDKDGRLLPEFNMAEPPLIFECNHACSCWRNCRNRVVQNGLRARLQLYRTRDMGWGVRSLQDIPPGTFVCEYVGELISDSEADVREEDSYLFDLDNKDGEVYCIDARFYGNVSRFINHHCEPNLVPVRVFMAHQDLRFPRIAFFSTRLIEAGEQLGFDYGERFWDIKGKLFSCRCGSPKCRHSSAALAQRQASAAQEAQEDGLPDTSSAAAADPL

[3] = target: T1, Histone-lysine N-methyltransferase EHMT2; assay: Binding affinity to recombinant G9a catalytic SET domain (913 to 1193 residues) (unknown origin) expressed in Escherichia coli BL21 (DE3) codon plus RIL in presence of SAM by isothermal titration calorimetry
[4] = target: T2, Histone-lysine N-methyltransferase EHMT1; assay: Binding affinity to recombinant GLP catalytic SET domain (982 to 1266 residues) (unknown origin) expressed in Escherichia coli BL21 (DE3) codon plus RIL in presence of SAM by isothermal titration calorimetry

SMILES | IC50 [1] [nM] | IC50 [2] [nM] | Kd [3] [nM] | Kd [4] [nM]
COc1cc2nc(N3CCOCC3)nc(NC3CCN(C)CC3)c2cc1C | 4070 | 808 |  | 
COc1cc2nc(N3CCCC3)nc(NC3CCN(C)CC3)c2cc1OC | 313 | 12 |  | 
CCN1CCC(Nc2nc(N3CCOCC3)nc3cc(OC)c(OC)cc23)CC1 | 323 | 26 |  | 
CCCCCCCNc1nc(NC2CCN(C)CC2)c2cc(OC)c(OC)cc2n1 | 756 | 44 |  | 
COc1cc2nc(C3CCCCC3)nc(NC3CCN(C)CC3)c2cc1OC | 438 | 34 |  | 
CCOc1cc2c(NC3CCN(C)CC3)nc(N3CCOCC3)nc2cc1OC | > 5000 | > 5000 |  | 
COc1cc2c(NC3CCN(C)CC3)nc(N3CCOCC3)nc2cc1F | > 5000 | > 5000 |  | 
COc1cc2nc(N3CCOCC3)nc(NC3CCN(C(C)C)CC3)c2cc1OC | 262 | 15 |  | 
CCCCNc1nc(NC2CCN(C)CC2)c2cc(OC)c(OC)cc2n1 | 436 | 35 |  | 
COc1cc2nc(N3CCC(F)(F)CC3)nc(NC3CCN(C)CC3)c2cc1OC | 1060 | 97 |  | 
CCCCCCN(C)c1nc(NC2CCN(C)CC2)c2cc(OC)c(OC)cc2n1 | 311 | 18 |  | 
CCOc1cc2nc(N3CCOCC3)nc(NC3CCN(C)CC3)c2cc1OC | > 5000 | > 1000 |  | 
CCCN1CCC(Nc2nc(N3CCOCC3)nc3cc(OC)c(OC)cc23)CC1 | 224 | 11 |  | 
CCCCCCNc1nc(NC2CCN(C)CC2)c2cc(OC)c(OC)cc2n1 | 992 | 7 | 610 | 46
COc1cc2nc(N3CCOCC3)nc(NC3CCN(C)CC3)c2cc1OC(C)C | > 5000 | > 5000 |  | 
COc1cc2nc(N3CCOCC3)nc(NC3CCN(C)CC3)c2cc1F | 3690 | 1230 |  | 
COc1cc2c(NC3CCN(C)CC3)nc(N3CCOCC3)nc2cc1C | 1150 | 29 |  | 
COc1cc2nc(N3CCOCC3)nc(NC3CCN(C4CC4)CC3)c2cc1OC | 313 | 12 |  | 
CCCCN(C)c1nc(NC2CCN(C)CC2)c2cc(OC)c(OC)cc2n1 | 407 | 35 |  | 
COc1cc2nc(C3CCOCC3)nc(NC3CCN(C)CC3)c2cc1OC | 1910 | 341 |  | 
COc1cc2nc(N3CCCCCC3)nc(NC3CCN(C)CC3)c2cc1OC | 190 | 16 |  | 
CCCCCN(C)c1nc(NC2CCN(C)CC2)c2cc(OC)c(OC)cc2n1 | 306 | 28 |  | 
COc1cc2c(NC3CCN(C)CC3)nc(N3CCOCC3)nc2cc1OC(C)C | > 5000 | > 5000 |  | 
CCCCCNc1nc(NC2CCN(C)CC2)c2cc(OC)c(OC)cc2n1 | 341 | 63 |  | 
COc1cc2nc(N3CCCCC3)nc(NC3CCN(C)CC3)c2cc1OC | 31 | 12 |  | 
COc1cc2nc(N3CCOCC3)nc(NC3CCN(C)CC3)c2cc1OC | 440 | 13 | 445 | 40
COc1cc2nc(N3CCCN(C)CC3)nc(NC3CCN(C)CC3)c2cc1OC |  | 4 |  | 
